According to patent US20230416256A1, “SMALL MOLECULE INHIBITORS OF NF-kB INDUCING KINASE” (Janssen Pharmaceutica NV, priority 2020, published 2023):
Read-outs that look alike come from different tables or passages of the source.

Key:
[1] = molecular target: recombinant human NF-kappaB-inducing kinase (NIK/MAP3K14) (Homo sapiens, UniProt Q99558); test: Inhibition of auto-phosphorylation of recombinant human NIK/MAP3K14 activity (AlphaScreen); type: biochemical; conditions: GST-tagged NIK/MAP3K14 1 nM, 5 μM ATP, 2 h at 25° C.; average of values obtained
Method in brief: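 GST-tagged NIK (1 nM) auto-phosphorylated for 2 h at 25 °C with 5 μM ATP in 50 mM Tris pH 7.5, 5 mM MgCl2, 0.7% DMSO. Phospho-Ser176/180 was detected by AlphaScreen using an anti-phospho-IKK antibody. IC50 came from sigmoidal fits of % inhibition versus high (full activity) and low (no ATP) controls.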

[2] = tested on: p-IKKα levels in L363 (NIK translocated multiple myeloma) cells; test: Effect of compounds on p-IKKα levels in L363 cells (AlphaLISA SureFire Ultra); type: cell-based, human; conditions: Homo sapiens, 10 μM MG132, 6 h, average of values obtained, read-out: Assay 2 IC50
Method in brief: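 L363 cells were BAFF-stimulated overnight (250 ng/ml) in DMEM/0.5% BSA, then exposed to an 11-point 1:3 compound series (0.3% DMSO) with BAFF and 10 μM MG132 for 6 h at 37 °C. p-IKKα (Ser176/180) was measured by AlphaLISA SureFire Ultra. IC50 was fitted from % inhibition normalized to stimulated and unstimulated controls.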

[3] = L-363, 6 h, 250 ng/ml BAFF stimulated
[4] = L-363, 250 ng/ml BAFF stimulated

Chain of recombinant human NF-kappaB-inducing kinase (NIK/MAP3K14) (Q99558 whole entry): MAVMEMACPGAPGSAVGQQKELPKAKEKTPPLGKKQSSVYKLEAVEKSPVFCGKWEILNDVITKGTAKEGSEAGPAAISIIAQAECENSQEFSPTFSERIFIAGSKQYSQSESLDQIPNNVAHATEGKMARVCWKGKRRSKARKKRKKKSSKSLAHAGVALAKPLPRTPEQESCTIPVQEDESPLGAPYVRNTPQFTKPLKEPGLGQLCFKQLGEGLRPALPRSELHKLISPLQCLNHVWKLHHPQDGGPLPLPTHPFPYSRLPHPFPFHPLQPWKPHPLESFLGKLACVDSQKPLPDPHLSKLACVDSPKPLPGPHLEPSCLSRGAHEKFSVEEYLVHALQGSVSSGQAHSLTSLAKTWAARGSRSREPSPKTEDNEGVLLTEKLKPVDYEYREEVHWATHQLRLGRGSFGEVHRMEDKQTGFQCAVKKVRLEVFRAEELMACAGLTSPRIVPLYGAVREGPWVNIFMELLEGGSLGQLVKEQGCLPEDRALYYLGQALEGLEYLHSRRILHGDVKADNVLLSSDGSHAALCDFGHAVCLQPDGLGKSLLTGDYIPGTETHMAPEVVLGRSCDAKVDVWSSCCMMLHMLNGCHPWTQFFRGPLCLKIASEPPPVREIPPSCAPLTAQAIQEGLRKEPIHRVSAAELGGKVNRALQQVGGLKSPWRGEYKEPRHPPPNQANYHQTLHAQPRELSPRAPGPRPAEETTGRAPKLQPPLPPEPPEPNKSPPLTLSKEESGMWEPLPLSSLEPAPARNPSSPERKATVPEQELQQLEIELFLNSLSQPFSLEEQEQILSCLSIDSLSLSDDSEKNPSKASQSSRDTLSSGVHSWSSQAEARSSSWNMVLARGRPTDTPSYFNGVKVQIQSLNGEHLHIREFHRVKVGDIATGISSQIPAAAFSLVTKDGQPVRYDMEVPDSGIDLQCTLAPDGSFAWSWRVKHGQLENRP

IC50 [2, 3] [nM] | SMILES | IC50 [1] [nM] | IC50 [2, 4] [nM]
≤ 100 | [2H]c1[nH]c2nccnc2c1-c1nc(-c2cccc([C@]3(O)CCn4ccnc43)c2)cs1 [Example 62, (R)-7-(3-(2-(5H-Pyrrolo[2,3-b]pyrazin-7-yl-6-d)thiazol-4-yl)phenyl)-6,7-dihydro-5H-pyrrolo[1,2-a]imidazol-7-ol] | ≤ 100 | 
≤ 100 | [2H]c1cnc2[nH]cc(-c3nc(-c4cccc([C@]5(O)CCn6ccnc65)c4)cs3)c2n1 [Example 63, (R)-7-(3-(2-(5H-Pyrrolo[2,3-b]pyrazin-7-yl-2-d)thiazol-4-yl)phenyl)-6,7-dihydro-5H-pyrrolo[1,2-a] imidazol-7-ol] | ≤ 100 | 
 | Cc1sc(-c2c[nH]c3nccnc23)nc1-c1cccc([C@]2(O)CCN(C)C2=O)c1 [Example 66, (R)-3-Hydroxy-1-methyl-3-(3-(5-methyl-2-(5H-pyrrolo[2,3-b]pyrazin-7-yl)thiazol-4-yl)phenyl)pyrrolidin-2-one] | ≤ 100 | > 500
 | Cc1ccc([C@]2(O)CCN(C)C2=O)cc1-c1csc(-c2c[nH]c3nccnc23)n1 [Example 67, (R)-3-(3-(2-(5H-Pyrrolo[2,3-b]pyrazin-7-yl)thiazol-4-yl)-4-methylphenyl)-3-hydroxy-1-methylpyrrolidin-2-one] | ≤ 100 | > 500
 | Cc1cc(-c2csc(-c3c[nH]c4nccnc34)n2)cc([C@]2(O)CCN(C)C2=O)c1 [Example 68, (R)-3-(3-(2-(5H-Pyrrolo[2,3-b]pyrazin-7-yl)thiazol-4-yl)-5-methylphenyl)-3-hydroxy-1-methylpyrrolidin-2-one] | ≤ 100 | > 500
 | Cc1ccc(-c2csc(-c3c[nH]c4nccnc34)n2)cc1[C@]1(O)CCN(C)C1=O [Example 69, (R)-3-(5-(2-(5H-Pyrrolo[2,3-b]pyrazin-7-yl)thiazol-4-yl)-2-methylphenyl)-3-hydroxy-1-methylpyrrolidin-2-one] | 100 to 500 | > 500
 | Cc1ccc(-c2csc(-c3c[nH]c4nccnc34)n2)cc1[C@@]1(O)CCN(C)C1=O [Example 70, (S)-3-(5-(2-(5H-Pyrrolo[2,3-b]pyrazin-7-yl)thiazol-4-yl)-2-methylphenyl)-3-hydroxy-1-methylpyrrolidin-2-one] | > 500 | > 500
 | Cc1[nH]c2ncccc2c1-c1nc(-c2cccc([C@]3(O)CCN(C)C3=O)c2)cs1 [Example 71, (R)-3-Hydroxy-1-methyl-3-(3-(2-(2-methyl-1H-pyrrolo[2,3-b]pyridin-3-yl)thiazol-4-yl)phenyl)pyrrolidin-2-one] | 100 to 500 | > 500
 | CN1CC[C@@](O)(c2cccc(-c3csc(-c4c[nH]c5ncc(C#N)cc45)n3)c2)C1=O [Example 72, (R)-3-(4-(3-(3-Hydroxy-1-methyl-2-oxopyrrolidin-3-yl)phenyl)thiazol-2-yl)-1H-pyrrolo[2,3-b]pyridine-5-carbonitrile] | ≤ 100 | > 500
 | Cc1ccc2c(-c3nc(-c4cccc([C@]5(O)CCN(C)C5=O)c4)cs3)c[nH]c2n1 [Example 73, (R)-3-Hydroxy-1-methyl-3-(3-(2-(6-methyl-1H-pyrrolo[2,3-b]pyridin-3-yl)thiazol-4-yl)phenyl)pyrrolidin-2-one] | ≤ 100 | > 500
 | Cc1cnc2[nH]c(C)c(-c3nc(-c4cccc([C@]5(O)CCN(C)C5=O)c4)cs3)c2c1 [Example 74, (R)-3-(3-(2-(2,5-Dimethyl-1H-pyrrolo[2,3-b]pyridin-3-yl)thiazol-4-yl)phenyl)-3-hydroxy-1-methylpyrrolidin-2-one] | > 500 | > 500
> 500 | O[C@@]1(c2cccc(-c3csc(-c4n[nH]c5ncccc45)n3)c2)CCn2ccnc21 [Example 75, (R)-7-(3-(2-(1H-Pyrazolo[3,4-b]pyridin-3-yl)thiazol-4-yl)phenyl)-6,7-dihydro-5H-pyrrolo[1,2-a]imidazol-7-ol] | 100 to 500 | 
